Laboratory results as given in patent US11214803B2, “Modulators of YAP1 expression” (Ionis Pharmaceuticals, Inc., priority 2019, dated 2022).
Marks after values point to notes of the source that are not given here. Strand notation (5' to 3'): a small letter for the sugar, then the base; units joined by * are phosphorothioate-linked, units joined directly phosphodiester-linked; [ ] holds rarer units or linkages, { } end groups; capitals alone tell only the bases. k = constrained ethyl (cEt); [5mC] = 5-methylcytosine; d = 2'-deoxy (DNA)

test system: Yap1 mRNA; experiment: Antisense inhibition of human Yap1 in A-431 cells by cEt gapmers, single dose (Example 3, RTS36584); type: cell-based; conditions: Table 8; A-431 cells, 5,000 cells per well, free uptake, 2,000 nM, approximately 48 hours; RTS36584; normalized to RIBOGREEN; Yap1 mRNA relative to untreated control cells
Summary of the method: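 Single-dose free-uptake screen of 3-10-3 cEt gapmers in A-431 cells at 2,000 nM over about 48 h. Values are % untreated control Yap1 mRNA.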

| Substance | YAP1 (% UTC) |
| --- | --- |
| 958405 (antisense kT*kT*kA*dT*dG*dG*dG*dA*dT*dG*dA*dG*dT*kG*k[5mC]*kT) [Compound 958405] | 24 |
| 958383 (antisense k[5mC]*kT*kT*d[5mC]*d[5mC]*dT*d[5mC]*dT*dG*d[5mC]*dG*d[5mC]*dG*k[5mC]*k[5mC]*k[5mC]) [Compound 958383] | 96 |
| 958364 (antisense k[5mC]*kA*kT*dG*dT*dT*dG*dT*dT*dG*dT*d[5mC]*dT*kG*kA*kT) [Compound 958364] | 19 |
| 958376 (antisense k[5mC]*kT*kG*dG*dG*dA*dT*dT*dG*dA*dT*dA*dT*kT*k[5mC]*k[5mC]) [Compound 958376] | 31 |

same assay, conditions: Table 9; A-431 cells, 5,000 cells per well, free uptake, 2,000 nM, approximately 48 hours; RTS36584; normalized to RIBOGREEN; Yap1 mRNA relative to untreated control cells

| Substance | YAP1 (% UTC) |
| --- | --- |
| 958771 (antisense k[5mC]*kT*kA*d[5mC]*dA*dG*dA*d[5mC]*dG*dA*dA*dT*dT*k[5mC]*k[5mC]*kA) [Compound 958771] | 18 |
| 958446 (antisense k[5mC]*k[5mC]*kT*dG*dA*d[5mC]*d[5mC]*d[5mC]*dA*dG*dG*d[5mC]*dG*kA*kG*k[5mC]) [Compound 958446] | 70 |
| 958646 (kT*kA*kT*dT*dA*dT*dA*dT*dG*dG*d[5mC]*dT*dA*kA*kG*k[5mC]; antisense) [Compound 958646] | 26 |

same assay, conditions: Table 10; A-431 cells, 5,000 cells per well, free uptake, 2,000 nM oligonucleotide, approx. 48 hours; primer probe set RTS36584; Yap1 mRNA normalized to RIBOGREEN, percent of untreated control

| Substance | YAP1 (% UTC) |
| --- | --- |
| 958477 (antisense kA*kT*kT*dT*d[5mC]*d[5mC]*dG*dG*dT*dG*d[5mC]*dA*dT*kG*kT*kG) [Compound 958477] | 2 |
| 958807 (kT*k[5mC]*kA*dT*dT*dG*dT*dA*dG*dT*d[5mC]*dT*dG*kT*k[5mC]*kT; antisense) [Compound 958807] | 3 |
| 958447 (antisense kG*kT*kT*dG*dA*dG*dG*d[5mC]*dG*dG*d[5mC]*dG*dG*k[5mC]*kT*kG) [Compound 958447] | 48 |
| 958667 (kT*kG*k[5mC]*d[5mC]*dG*dG*dG*d[5mC]*d[5mC]*d[5mC]*d[5mC]*dT*dA*kT*kG*k[5mC]; antisense) [Compound 958667] | 80 |
| 958602 (kT*kG*k[5mC]*d[5mC]*dA*dT*dG*dT*dT*d[5mC]*d[5mC]*dA*dT*kA*kT*kA; antisense) [Compound 958602] | 16 |

same assay, conditions: Table 11; A-431 cells, 5,000 cells per well, free uptake, 2,000 nM oligonucleotide, approx. 48 hours; primer probe set RTS36584; Yap1 mRNA normalized to RIBOGREEN, percent of untreated control

| Substance | YAP1 (% UTC) |
| --- | --- |
| 958488 (kA*kG*kG*dA*dA*dT*dG*dG*d[5mC]*dA*dT*d[5mC]*d[5mC]*kA*kT*k[5mC]; antisense) [Compound 958488] | 41 |
| 958693 (antisense kG*kT*kG*dG*dT*dG*dT*d[5mC]*dT*d[5mC]*dA*d[5mC]*dA*kG*kG*k[5mC]) [Compound 958693] | 99 |

same assay, conditions: Table 12; A-431 cells, 5,000 cells per well, free uptake, 2,000 nM modified oligonucleotide, approx. 48 hours; RTS36584; normalized to RIBOGREEN; Yap1 mRNA relative to untreated control cells

| Substance | YAP1 (% UTC) |
| --- | --- |
| 958739 (antisense kA*kG*k[5mC]*dA*dA*dT*dA*dG*dA*dG*dT*dA*dA*k[5mC]*k[5mC]*kA) [Compound 958739] | 4 % UTC |
| 958804 (antisense kA*kG*kA*dT*dA*dA*dT*d[5mC]*dA*dT*d[5mC]*d[5mC]*dT*k[5mC]*kA*kG) [Compound 958804] | 17 % UTC |
| 958464 (antisense kG*k[5mC]*kT*d[5mC]*dA*dT*dG*d[5mC]*dT*dT*dA*dG*dT*k[5mC]*k[5mC]*kA) [Compound 958464] | 3* % UTC |
| 958729 (antisense kG*kT*k[5mC]*dA*dG*dT*dT*dA*dT*d[5mC]*d[5mC]*dT*dA*kT*k[5mC]*kT) [Compound 958729] | 4 % UTC |

same assay, conditions: Table 13; A-431 cells, 5,000 cells per well, free uptake, 2,000 nM modified oligonucleotide, approx. 48 hours; RTS36584; normalized to RIBOGREEN; Yap1 mRNA relative to untreated control cells

| Substance | YAP1 (% UTC) |
| --- | --- |
| 958460 (antisense kT*k[5mC]*kG*d[5mC]*dA*dT*d[5mC]*dT*dG*dT*dT*dG*d[5mC]*kT*kG*k[5mC]) [Compound 958460] | 52 |
| 958755 (antisense kT*kA*kA*d[5mC]*dA*dT*dA*dA*dG*dA*d[5mC]*dA*d[5mC]*kG*kG*kA) [Compound 958755] | 12 |
| 958695 (antisense kT*k[5mC]*kA*dA*dT*dT*d[5mC]*dT*d[5mC]*d[5mC]*dA*d[5mC]*d[5mC]*kA*kG*kA) [Compound 958695] | 45 |

same assay, conditions: Table 26; Yap1 mRNA by 3-10-3 cEt gapmers targeting SEQ ID NO.: 1, and 2; percent of untreated control

| Substance | YAP1 (% UTC) |
| --- | --- |
| 1075948 (antisense kG*kG*kA*d[5mC]*dT*dA*dA*dA*dG*dA*dA*dT*dA*k[5mC]*kA*kG) [compound 1075948] | 31 |
| 1074956 (antisense kA*k[5mC]*k[5mC]*d[5mC]*dG*dG*dG*dT*dT*dT*dT*dT*dG*kT*k[5mC]*kA) [compound 1074956] | 104 |
| 1074540 (kA*k[5mC]*kT*dA*dT*d[5mC]*d[5mC]*dA*d[5mC]*dA*dG*dT*dA*kA*kT*kA; antisense) [compound 1074540] | 26 |
| 1074860 (kA*kA*kA*dG*dG*dT*dA*dA*d[5mC]*dA*dT*dT*dG*kG*kT*kA; antisense) [compound 1074860] | 9 |
| 1075212 (k[5mC]*kA*kA*dT*dA*dA*dA*dG*dG*dG*dT*d[5mC]*d[5mC]*kT*kA*kA; antisense) [compound 1075212] | 76 |
| 1076492 (kA*kA*kA*dA*dG*dA*dT*dA*d[5mC]*d[5mC]*d[5mC]*d[5mC]*d[5mC]*kA*kG*kT; antisense) [compound 1076492] | 47 |
| 1076204 (kG*kA*kT*dA*dA*dT*dG*dA*dA*dT*d[5mC]*d[5mC]*dT*kT*kG*kT; antisense) [compound 1076204] | 11 |

same assay, conditions: Table 27; Yap1 mRNA by 3-10-3 cEt gapmers targeting SEQ ID NO.: 1, and 2; percent of untreated control

| Substance | YAP1 (% UTC) |
| --- | --- |
| 1075181 (kT*kT*kA*dT*dA*dT*dT*dA*d[5mC]*dT*dA*d[5mC]*dA*kA*k[5mC]*k[5mC]; antisense) [compound 1075181] | 15 |
| 1074669 (antisense kA*kT*k[5mC]*d[5mC]*d[5mC]*dA*dA*d[5mC]*dA*dA*d[5mC]*dA*dT*kG*k[5mC]*kT) [compound 1074669] | 13 |
| 1075341 (antisense kG*k[5mC]*kT*dG*dA*dA*d[5mC]*dA*dA*dT*d[5mC]*dT*d[5mC]*k[5mC]*k[5mC]*kG) [compound 1075341] | 31 |
| 1076173 (k[5mC]*kA*kA*dT*dA*dT*dA*dT*d[5mC]*d[5mC]*dT*dG*dA*kG*kA*kT; antisense) [compound 1076173] | 91 |
| 1075309 (antisense kT*kA*kA*dT*dT*dA*dA*dA*d[5mC]*dG*dA*dA*dA*k[5mC]*kA*k[5mC]) [compound 1075309] | 110 |

same assay, conditions: Table 28; Yap1 mRNA as percent of untreated control; 3-10-3 cEt gapmers targeting SEQ ID NO.: 1, and 2

| Substance | YAP1 (% UTC) |
| --- | --- |
| 1074190 (antisense k[5mC]*kG*kG*d[5mC]*dG*dG*dG*d[5mC]*d[5mC]*d[5mC]*dT*dG*d[5mC]*k[5mC]*k[5mC]*k[5mC]) [compound 1074190] | 114 |
| 1074702 (antisense kG*kG*kT*dG*dT*dA*dA*dG*dA*d[5mC]*dA*dA*dG*kT*k[5mC]*kT) [compound 1074702] | 16 |
| 1075918 (antisense k[5mC]*kT*kT*dA*dA*dA*d[5mC]*dT*dA*dA*d[5mC]*dT*dG*kT*kT*kG) [compound 1075918] | 82 |

same assay, conditions: Table 29; Yap1 mRNA as percent of untreated control; 3-10-3 cEt gapmers targeting SEQ ID NO.: 1, and 2

| Substance | YAP1 (% UTC) |
| --- | --- |
| 1075663 (antisense k[5mC]*kT*kA*dA*dA*dT*dA*dG*dG*dT*dG*dG*dT*kT*kA*kT) [compound 1075663] | 80 |
| 1074543 (k[5mC]*k[5mC]*kT*dA*dG*dG*d[5mC]*dA*d[5mC]*dT*dA*dT*d[5mC]*k[5mC]*kA*k[5mC]; antisense) [compound 1074543] | 57 |
| 1075823 (kT*kA*kT*dT*dA*dG*dA*dG*dG*dT*dT*d[5mC]*d[5mC]*kA*kG*kG; antisense) [compound 1075823] | 30 |

same assay, conditions: Table 34; Yap1 mRNA as percent of untreated control; 3-10-3 cEt gapmers targeting SEQ ID NO: 1 and 2; single dose

| Substance | YAP1 (% UTC) |
| --- | --- |
| 1074708 (antisense k[5mC]*kT*kT*dT*dA*dA*dT*dG*dG*d[5mC]*dA*dG*d[5mC]*kA*k[5mC]*kG) [compound 1074708] | 55 |
| 1074868 (kG*kT*kA*d[5mC]*d[5mC]*dT*dA*dA*d[5mC]*dA*dT*dA*dT*kG*kA*kG; antisense) [compound 1074868] | 74 |
| 1076020 (k[5mC]*k[5mC]*k[5mC]*d[5mC]*dA*dA*d[5mC]*dA*d[5mC]*dT*dA*dA*dT*kA*kG*kG; antisense) [compound 1076020] | 60 |

same assay, conditions: Table 35; Yap1 mRNA as percent of untreated control; 3-10-3 cEt gapmers targeting SEQ ID NO: 1 and 2; single dose

| Substance | YAP1 (% UTC) |
| --- | --- |
| 1076341 (antisense kA*kT*kT*dA*dA*d[5mC]*dT*dA*d[5mC]*dA*dA*d[5mC]*dT*kG*kT*kG) [compound 1076341] | 18 |
| 1075957 (k[5mC]*kT*kA*dT*dA*dA*dA*dG*d[5mC]*dA*dA*dT*dG*k[5mC]*kG*kA; antisense) [compound 1075957] | 28 |
| 1074261 (antisense k[5mC]*k[5mC]*kG*dA*dG*dT*dT*d[5mC]*dA*dT*d[5mC]*dA*dT*kA*kT*kT) [compound 1074261] | 19 |
| 1075317 (antisense kG*kT*kA*dT*dT*d[5mC]*dG*d[5mC]*d[5mC]*dT*d[5mC]*d[5mC]*dT*kG*k[5mC]*kA) [compound 1075317] | 27 |
